Source: patent US20220204563A1, “DELIVERY PEPTIDES AND METHODS OF USING THE SAME” (NATIONAL INSTITUTE FOR BIOTECHNOLOGY IN THE NEGEV LTD., priority 2019, published 2022)
Primed or numbered codes have the meaning given here. No end group written: not given here. TAMRA = tetramethylrhodamine fluorescent label; FITC′ = not defined here

Legend:
[1] = test system: M. rosenbergii early vitellogenic oocytes; assay: In vitro incubation of ovary pieces with fluorophore-labelled peptides, confocal imaging of oocytes; format: cell-based, Macrobrachium rosenbergii; conditions: for Distribution of TAMRA-labelled peptide in the oocyte: ovary pieces incubated with Vg-TAMRA or scVg-TAMRA separately, 6 μM, confocal; for Endocytosis into oocytes, distribution of the two fluorescent-labelled peptides: simultaneous incubation with Vg-TAMRA and control-FITC, 6 μM each; for Fluorescent intensity in oocytes compared to Vg246-253-TAMRA: ovary slices in vitro, TAMRA emission
Protocol: (§1) Ovary pieces from in-vitro or in-vivo experiments were washed with Schneider's drosophila medium without the peptides for 5 min. Then, the pieces were torn apart on a slide in one drop of the medium to better view the individual oocytes. The slides were inspected, and images were taken by a confocal microscope FV1000 (Olympus) at ×60 magnification. The excitation laser wavelength was 561 nm for the TAMRA labelled peptides and 488 nm for FITC labelled control peptides, and the emission was obtained at […], respectively.
M. rosenbergii ovary pieces of 1-3 mm with oocytes diameter of ˜150 μm (early vitellogenic ovaries) were incubated in a sterile 24-wells plate, 2 cm^2 growth area each well (Biofil®) in a biological hood. Each piece was incubated with 250 μl Schneider's drosophila culture medium with osmolality fixed to 420 mOsm/L and supplemented with FBS (10%), PSA (final concentration: Penicillin—100 units/mL, streptomycin—0.1 mg/mL, Amphotericin B—0.25 μg/mL and insulin 10 mg/ml insulin in 25 mM HEPES). The ovary pieces were incubated either with Vg-TAMRA or scVg-TAMRA or with both Vg-TAMRA and scVg-FITC simultaneously (6 μM each). The plate was incubated at room temperature for 24 and 48 hours. To test dsRNA piggybacking, 55 pmole dsRNA was conjugated to 275 pmole either Vg-TAMRA or scVg-FITC peptides. Ovary pieces were incubated with the dsGFP-Vg-TAMRA or dsGFP-scVg-FITC conjugates and cultured as stated above.
To evaluate the endocytosis capability of oocytes with respect to the newly designed Vg-derived peptides, an in vitro experiment was performed. Vg-derived and control peptides, labeled with TAMRA fluorophore, were detected by confocal microscopy. Both peptides were detected in the vicinity of the oocyte membrane (FIG. 4). […] In order to get the highest certainty regarding the internalization specificity of the Vg-derived peptides, the Vg and control peptides were labelled with an additional fluorophore (FIGS. 4E-4H), Vg peptide was labelled with TAMRA (FIGS. 4E and 4H), while the control peptide has been labelled with FITC molecule (FIG. 4F). A similar result was obtained in this experiment showing distinct distribution of the two fluorescent-labelled peptides.
Further, a dose dependent test with respect to Vg-derived peptides penetration into oocytes using Vg descending concentrations was performed (FIG. 5). Unlike the control scrambled peptide (scVg), the Vg peptide maintained similar pattern of distribution in the oocyte throughout the descending concentrations (FIG. 5, upper row).
The inventors further examined the capability and efficacy of shorter/partial sequences derived from the peptide of the invention to being internalized into M. rosenbergii oocytes. Further, the inventors examined whether homologous peptides derived from a different decapod crustacean, e.g., Litopenaeus vannamei, would also be internalized into M. rosenbergii oocytes.
The mentioned peptides were incubated in vitro with ovary slices to evaluate their internalization. […] In contrast to that, the Vg-derived peptides were capable to enter the oocyte as they were observed beyond the follicular cells inside the oocytes (red dots, FIGS. 11B-11G). […] Moreover, both L. vannamei Vg derived peptides were capable to endocytose into M. rosenbergii oocytes (FIGS. 11F-11G).

oocytes = assay: In vivo assay: peptide injection into the hemolymph of reproductive females, confocal imaging of oocytes and gills; design: species or system Macrobrachium rosenbergii; conditions: for Fluorescent emission in oocytes after injection: mixture of both peptides injected, 5 μg/gr body weight, oocytes dissected 24 h after injection
Protocol: as §1
Solution containing the culture medium, Vg-TAMRA and scVg-FITC peptides were injected (5 μg/gr body weight) into the hemolymph sinus at the base of the fifth walking leg of a M. rosenbergii reproductive females (14.3±0.4 gr, with opaque white to yellowish ovary, FIG. 2, left). For the injection, a manual micro dispenser syringe was used (Drummond®). After injection, the animals were kept at 28° C. for 24 hours in the culture facility for freshwater prawn M. rosenbergii, at Ben-Gurion University. Vg-dsEGFR or Vg-dsPAX6 conjugates (5:1 molar ratio for conjugation, 5 μg dsRNA/g body weight) were injected twice a week at the first two weeks. From the third week, the injections were performed once a week. The females were monitored daily and upon appearance of the reproductive molt, the females were released to a tank with a male for fertilization. The embryos' development on the pleopods of their mother (FIG. 2, middle) were monitored under stereoscope, and a fraction was collected for RNA extraction and subsequent quantitative PCR analysis.
To determine whether the Vg-TAMRA peptide has the capability to specifically in vivo internalize into oocytes, a mixture of the Vg-TAMRA and the control-FITC peptides were injected into the prawn circulatory system. […] To verify that the two peptides did circulate through the prawn female body, the prawn gills were dissected and examined under the confocal microscope.

[2] = Dynamic light scattering (DLS) of dsRNA-peptide conjugates; format: physicochemical; conditions: 700 bp dsRNA, dsRNA:peptide ratio 1:30 (FIG. 6B dots)
Protocol: Constant amount of dsRNA (25 pmole) solution was mixed with an increasing amount of peptide solution in an Eppendorf vial (˜1.5 mL). The total conjugation reaction volume was completed to 15 μl with DEPC treated DDW. The solutions were incubated at room temperature for 20 minutes. To evaluate peptide-dsRNA conjugation, a 1.3% agarose gel was prepared in TAE buffer. Conjugates were mixed with equal volume of loading buffer (50% glycerol and 0.5 M EDTA). Peptide-dsRNA conjugates were separated for 30 minutes at 120 V. Fluorescent emission of conjugates in gels were scanned by using a Typhoon FLA 9500 gel system (GE Healthcare®).
In order to verify whether the Vg-derived peptide was capable to piggyback and internalize a large molecule such as a dsRNA into the oocytes, a conjugation approach between the peptide and dsRNA was developed. The Vg-TAMRA and the control-FITC peptides were synthesized with a cationic poly lysine-histidine tail (KH) to allow electrostatic interactions between the peptides and the negatively charged dsRNA. The dsRNA-peptide complexes prepared at different molar ratios (peptide/dsRNA ratio: 1, 5, 10, 20 and 30) were characterized with two different assays: dynamic light scattering (DLS) and separation on agarose gel.
dsRNA of 700 bp (dsEGFR) and another one a mix of 200 and 230 bp dsRNA (dsPAX6) were prepared (FIG. 3A). […]

CDKNIIKPAYGSYKYVEAHQESVLRK-TAMRA (CDKNIIKPAYGSYKYVEAHQESVLRK-{TAMRA}) [Vg-TAMRA]
Fluorescence intensity in comparison to the control peptide ([1]; descending concentrations 12-0.75 μM, fluorescence and overlay images): higher intensity of the red TAMRA emission
Distribution of TAMRA-labelled peptide in the oocyte [1]: distributed mainly at the cytosolic side of the oocyte membrane
Fluorescent signal in oocytes ([1]; peptide concentration 0.75 μM): No signal was detected
Fluorescent signal in oocytes ([1]; peptide concentration 1.5 μM): clear fluorescent signal
Fluorescent signal in oocytes ([1]; peptide concentration 6 μM): clear fluorescent signal
Fluorescent signal in oocytes ([1]; peptide concentration 12 μM): clear fluorescent signal
Endocytosis into oocytes, distribution of the two fluorescent-labelled peptides [1]: clearly observed
Detection of peptide in gills after injection (oocytes; early vitellogenic female injected simultaneously with both peptides): can be detected in the gills
Fluorescent emission in oocytes after injection (oocytes): a clear 564 nm emission was seen inside the oocytes

CQAPVKLIAYDKNKYEHEYRISVSGK-FITC (CQAPVKLIAYDKNKYEHEYRISVSGK-{FITC′}) [scVg-FITC, reference compound]
Internalization into M. rosenbergii oocytes ([1]; ovary slices incubated with Vg-derived peptide TAMRA and scVg-FITC simultaneously): observed only on the outer area of the oocyte
Endocytosis into oocytes, distribution of the two fluorescent-labelled peptides [1]: only on the outer surface of the membrane
Detection of peptide in gills after injection (oocytes; in vivo): can be detected in the gills
Fluorescent emission in oocytes after injection (oocytes): absent from oocytes

CQAPVKLIAYDKNKYEHEYRISVSGK-TAMRA (CQAPVKLIAYDKNKYEHEYRISVSGK-{TAMRA}) [scVg-TAMRA, reference compound]
Distribution of TAMRA-labelled peptide in the oocyte [1]: mainly dispersed on the outer surface of the oocyte
Fluorescent signal in oocytes ([1]; peptide concentration 0.75 μM): No signal was detected
Fluorescent signal in oocytes ([1]; peptide concentration 1.5 μM): no apparent signal
Fluorescent signal in oocytes ([1]; peptide concentration 6 μM): weak fluorescent signal
Fluorescent signal in oocytes ([1]; peptide concentration 12 μM): weak fluorescent signal

DKNIIKPAYGSYKYVEAK-TAMRA (DKNIIKPAYGSYKYVEAK-{TAMRA}) [Vg237-253-TAMRA]
Fluorescent intensity in oocytes compared to Vg246-253-TAMRA [1]: Weaker florescent intensity

DKNIIKPK-TAMRA (DKNIIKPK-{TAMRA}) [Vg237-244-TAMRA]
Fluorescent intensity in oocytes compared to Vg246-253-TAMRA [1]: Weaker florescent intensity

KHKHKHKHKHKHKHKHKHCDKNIIKPAYGSYKYVEAHQESVLRK-TAMRA (KHKHKHKHKHKHKHKHKHCDKNIIKPAYGSYKYVEAHQESVLRK-{TAMRA}) [KH9-Vg]
Particle radius (DLS) [2]: ~100 nm

Vg235-260-TAMRA: 26 amino acid VgR interacting region peptide; probably the Vg-TAMRA peptide of SEQ ID NO: 22 (CDKNIIKPAYGSYKYVEAHQESVLRK; not fully specified (C-terminus); also: TAMRA label)
Fluorescent intensity in oocytes compared to Vg246-253-TAMRA [1]: Weaker florescent intensity
